Counter-ions that a name gives are not always drawn.
Molecular target: T1, hPRDM9 (amino acids 195-385) (Homo sapiens, UniProt Q9NQV7)
T1 construct: 1.25 nM hPRDM9 (amino acids 195-385)
T1 sequence (Q9NQV7 195-385): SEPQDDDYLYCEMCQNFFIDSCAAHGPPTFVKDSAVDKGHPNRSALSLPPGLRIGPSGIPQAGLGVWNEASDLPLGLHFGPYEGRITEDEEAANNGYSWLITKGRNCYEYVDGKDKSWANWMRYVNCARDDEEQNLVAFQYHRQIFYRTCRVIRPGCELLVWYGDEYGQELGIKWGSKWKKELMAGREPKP
Assay: PRDM9 biochemical assay (radiometric, 3[H] methyl transfer from SAM to biotinylated histone H3 peptide)
Conditions: 1 nM hPRDM9, 1 μM biotinylated H3(1-25)K4 peptide, 5 μM 3[H]-SAM, 55 μM un-labeled SAM, 25° C., 30 minutes
Summary of the method: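 Radiometric assay of ³H-methyl transfer to biotinylated H3(1-25)K4 peptide, with final concentrations 1 nM hPRDM9 (195-385), 1 μM peptide, 5 μM ³H-SAM and 55 μM unlabeled SAM. Run in pH 8.5 Tris buffer for 30 min at 25° C, quenched with guanidine-HCl and captured on streptavidin Flashplates. IC50 from four-parameter fit relative to 0.5% DMSO controls.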

| IC50 [µM] | SMILES |
| --- | --- |
| 0.083 | CNCc1cc(OC)cc(-c2noc(N3CCN(C)C4(CCN(c5ccnc(C)c5)CC4)C3)n2)c1 [Compound 245, 1-(3-methoxy-5-(5-(1-methyl-9-(2-methylpyridin-4-yl)-1,4,9-triazaspiro[5.5]undecan-4-yl)-1,2,4-oxadiazol-3-yl)phenyl)-N-methylmethanamine, HCl] |
| 0.083 | COc1cc(C(N)=O)cc(-c2noc(N3CCN(C)C4(CCN(c5ccnc(C)c5)CC4)C3)n2)c1 [Compound 246, 3-methoxy-5-(5-(1-methyl-9-(2-methylpyridin-4-yl)-1,4,9-triazaspiro[5.5]undecan-4-yl)-1,2,4-oxadiazol-3-yl)benzamide] |
| 0.65 | COc1cc(OC)cc(-c2noc(NCC3(O)CN(c4ccnc(C)c4)C3)n2)c1 [Compound 247, 3-(((3-(3,5-dimethoxyphenyl)-1,2,4-oxadiazol-5-yl)amino)methyl)-1-(2-methylpyridin-4-yl)azetidin-3-ol] |

From US20190374526A1, “Substituted Heterocyclic Compounds as Inhibitors of PRDM9” (Merck Sharp & Dohme Corp., priority 2018, published 2019)
